The source of these data is patent US8592152B2, “Gene detection assay for improving the likelihood of an effective response to an EGFR antagonist cancer therapy” (Genentech, Inc., priority 2000, dated 2013).

The assay relates to metastatic breast cancer. Nature of the assay: FISH/clinical outcome study: chemotherapy +/- Herceptin, 1st line therapy. It counts as in vivo, human. The protocol: The Clinical Testing Assay (CTA) involves two separate IHC assays performed with either monoclonal antibodies 4D5 (after protease digestion of the formalin fixed sample) or CB11 (after heat treatment of the formalin fixed sample). Subjects were eligible if either assay was scored at 2+ or 3+. If both were performed, the final score was the higher of the two results. […] Thus, formalin-fixed cut sections stored between 2.5 and 4.5 years from 540 subjects provided the sample pool for this study.

Turning to `CC(=O)O[C@H]1C(=O)[C@@]2(C)[C@H]([C@H](OC(=O)c3ccccc3)[C@]3(O)C[C@H](OC(=O)[C@H](O)[C@@H](NC(=O)c4ccccc4)c4ccccc4)C(C)=C1C3(C)C)[C@]1(OC(C)=O)CO[C@@H]1C[C@@H]2O` [P, Paditaxol], under “2+/3+ population (469)”, the “Response rate of newly defined populations” value (from here on “Response rate”) was found to be 17, the “Survival of newly defined populations” value was 18 months and the “Time to progression of newly defined populations” value (from here on “Time to progression”) worked out at 2.7 months. Where the note is “3+ population (349)”, the “Response rate” value is 17, the “Survival of newly defined populations” value came to 18 months and the “Time to progression” value stood at 3.0 months. For the same compound, for the setting “FISH+ population (240)”, the “Response rate” value stood at 14, the “Survival of newly defined populations” value is 14 months and the “Time to progression” value is 3.2 months.
For adrinomycin and cyclophosphamide [AC], the “Response rate” value by setting is: (2+/3+ population (469)) 42; (3+ population (349)) 42; (FISH+ population (240)) 40. Also, the “Survival of newly defined populations” value amounted to 21 months (2+/3+ population (469)), 21 months (3+ population (349)) and 20 months (FISH+ population (240)). The “Time to progression” value (2+/3+ population (469)) was determined as 6.1 months, the “Time to progression” value (3+ population (349)) was 6.0 months and the “Time to progression” value (FISH+ population (240)) was determined as 6.2 months.
